Measurements: paper PMC9122897, “SHR1032, a novel STING agonist, stimulates anti-tumor immunity and directly induces AML apoptosis” (Scientific Reports, 2022)

How the values were obtained:
[1] = system: THP1 reporter cells carrying human STING R232, H232 and HAQ variants; test: IRF luciferase reporter assay in THP1 cells with STING variants; type: cell-based; conditions: compared to cGAMP and ADU-S100; 24 h
Description: Five haplotypes of human STING have been identified (R232, H232, HAQ, AQ, and Q alleles), which vary at amino acid positions 71, 230, 232, and 293[16]. R232, HAQ and H232 were reported to be the three major alleles. We tested the responsiveness of the human STING alleles to STING agonists in THP1 reporter cells carrying human STING R232, H232 and HAQ variants. […] To examine whether the activities of STING agonists are on-target, we treated THP1-STING-KO reporter cells with the agonists and no luciferase reporter activity was detected, confirming the cellular activity of STING agonists we observed are specific from STING.
Figure 2 SHR1032 specifically and potently activates STING signaling pathway. […] Cells were stimulated for 24 h with the indicated STING compounds and assessed for luciferase activity. […] IFNβ in media was quantified by human or mouse ELISA kits respectively. […] The amount of pTBK1, total TBK1, STING and α-tubulin was measured by western blotting.
(§1) THP1 reporter cells were treated for 24 h with a total of 100 k cells and 150 ul media in each well a 96-well plate. […] Luminescence signal was measured using Tecan infinite M1000. EC50 values were calculated using non-linear regression analysis of GraphPad Prism. Cell growth was monitored by CellTiter-Glo Luminescent Cell Viability Assay (Promega) per manufacture’s protocol. […]

MOLM-16 cells = test: CellTiter-Glo cell growth; type: cell-based; conditions: Homo sapiens, MOLM16; MOLM-16, CellTiter Glo
Description: (§2) (a–d) AML cells were treated with STING agonists and standard of care cytarabine, and cell viability was measured by CellTiter Glo in (a) THP1-STING-R232, (b) THP1-STING-KO, (c) MV-4-11 and (d) MOLM-16. (e) MV-4-11, MOLM-16 and THP1-STING-KO cells were stimulated with 1 µM of SHR1032 for the indicated time points. The amount of pTBK1, total TBK1, pSTING, total STING and α-tubulin was measured by Western blot. pSTING phosphorylated STING. THP1 reporter cells were treated for 24 h with a total of 100 k cells and 150 ul media in each well a 96-well plate. Following the incubation, 20 µl of supernatant was transferred to an opaque 96 well ½ area plate and incubated for 30 s with 50 µl of QUANTI-Luc substrate (InvivoGen) per manufacturer’s instructions. Luminescence signal was measured using Tecan infinite M1000. EC50 values were calculated using non-linear regression analysis of GraphPad Prism. Cell growth was monitored by CellTiter-Glo Luminescent Cell Viability Assay (Promega) per manufacture’s protocol. GI50 values were calculated using non-linear regression analysis of GraphPad Prism. Cell lysates for western blotting were made in RIPA buffer (Sigma) with Halt Protease and Phosphatase Inhibitors (Thermo Scientific). Antibodies against pSTING, TBK1, pTBK1 and tubulin were purchased from Cell Signaling Technologies, and anti-STING was purchased from Protein Tech.

MV4-11 cells [2] = test: CellTiter-Glo cell growth; type: cell-based; conditions: Homo sapiens; MV4-11, CellTiter Glo
Description: as §2

[3] = system: THP1-IFNAR2-WT and THP1-IFNAR2-KO cells; test: Cell TiterGlo cell viability, IFNAR2 WT versus KO; type: cell-based, human; conditions: THP1-IFNAR2-WT vs -KO
Description: (§3) Figure 5 Cell apoptosis induced by SHR1032 in AML cell lines is independent of type I interferon. (a–d) RNA-Seq analysis of THP1-STING-R232, THP1-STING-KO and MV4-11 AML cells treated with 1 µM of SHR1032 for 4 h. […] (d) ANNEXIN V staining analysis with flow cytometry in MV4-11, MOLM-16, THP1-STING-WT and THP1-STING-KO cells. (e) Cell viability analysis by CellTiter Glo in THP1-IRFAR2-WT or -KO cells.
Type I interferons have been known to drive apoptosis in AML cells. Therefore, the apoptotic effects might be caused by type I interferons generated by STING activation. To address this question, we examined the IFNβ production with ELISA in MV4-11 and MOLM-16 cells stimulated with SHR1032. […] The activity of type I IFNs is mediated by the IFN-α receptor (IFNAR), which consists of two chains: IFNAR1 and IFNAR2. Knockout of the IFNAR2 gene abolishes the cellular response to type I IFNs.
as §1, with “protocol. GI50 values were calculated using non-linear regression analysis of GraphPad Prism.” for “protocol.”

MV4-11 cells [4] = test: RNA-seq differentially expressed genes; type: cell-based, human; conditions: MV4-11, 1 µM, 4 h
Description: as §3
(§4) RNA was extracted from cells using RNeasy Plus Mini Kit (Qiagen). Library preparation with NEBNext Ultra II with PolyA selection, sequencing with NovaSeq and data analysis was performed by Admera Health, New Jersey. The De-Seq2 (version 1.14.1) was used to do the differential analysis. Gene expression levels were quantified as Fragments Per Kilobase Million (FPKM). Gene expression with FPKM value ≥ 0.5 were selected and Log2-transformed for the Differential Gene Expression (DEGs) analysis using iDEP (http://bioinformatics.sdstate.edu/idep/). DEGs were defined by p < 0.05 within each indicated paired-comparison and then used for Gene Ontology Analysis and heatmap generation. The Gene Ontology Analysis was done using Enrichr. The heatmap was created using R package gplots (version 3.1.1), function heatmap.2.

THP1-STING-WT cells = test: RNA-seq differentially expressed genes; type: cell-based, human; conditions: 1 µM, 4 h
Description: as §3, §4

GI50 (MOLM-16 cells): 2.6 nM
GI50 (MV4-11 cells [2]): 1 nM
Structure (SMILES): CCn1nc(C)cc1C(=O)Nc1nc2cc(C(N)=O)cc(OC)c2n1CCC[C@H]1COc2cc(C(N)=O)cc3nc(NC(=O)c4cc(C)nn4CC)n1c23 [SHR1032]
potency in IRF luciferase reporter [1]: much better potency
effect of IFNA receptor deletion on induced cell death [3]: no effect on cell death induced by SHR1032
Genes differentially expressed: Down-expressed (MV4-11 cells [4]): 216
Genes differentially expressed: Up-expressed (MV4-11 cells [4]): 324
Genes differentially expressed: Down-expressed (THP1-STING-WT cells): 73
Genes differentially expressed: Up-expressed (THP1-STING-WT cells): 224
